Reference: PubChem BioAssay AID2060885 (Molecular Pharmacology Branch, DTP, NCI, 2025)

Tested on: NCI-H23 complex spheroids with HUVEC/MSC, viability
Experiment: Anticancer human tumor NCI-H23 cell line growth inhibition [RAS];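 further: spheroids exposed to compound for 7 days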;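 on viability, T/C: 100% = DMSO vehicle control viability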
Details: for IC50: curve of first compound; for viability, T/C: stronger effect = lower value
Procedure, shortened: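 Tumour cells grown as complex spheroids with HUVEC endothelial cells and mesenchymal stem cells, treated with RAS pathway inhibitor combinations. Each agent spans half-log steps from near clinical Cmax, or 10 microM where Cmax is unknown.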

Compound `CC1(O)CCCC1n1c(=O)c(C(F)F)cc2cnc(NC3CCN(S(C)(=O)=O)CC3)nc21` (configuration not stated) + C#Cc1c(F)ccc2cc(O)cc(-c3ncc4c(N5CC6CCC(C5)N6)nc(OCC56CCCN5CC(F)C6)nc4c3F)c12 has an IC50 (second compound 0.0316 µM) of 5.49 µM, an IC50 (second compound 0.1 µM) of 5.24 µM and an IC50 (second compound 0.316 µM) of 4.83 µM. For the same compound, the IC50 (second compound 1 µM) was 3.91 µM, the IC50 (second compound 3.16 µM) was under 0.0316 µM and the IC50 (second compound 10 µM) was under 0.0316 µM. The viability, T/C (second compound 0.0316 µM, first compound 0.0316 µM) was 93.3%, the viability, T/C (second compound 0.0316 µM, first compound 0.1 µM) was 92.8% and the viability, T/C (second compound 0.0316 µM, first compound 0.316 µM) was 75.2%. For the same compound, the viability, T/C (second compound 0.0316 µM, first compound 1 µM) was 80.1%, the viability, T/C (second compound 0.0316 µM, first compound 3.16 µM) was 81.7% and the viability, T/C (second compound 0.0316 µM, first compound 10 µM) was 15.6%. The viability, T/C (second compound 0.1 µM, first compound 0.0316 µM) was 90.2%, the viability, T/C (second compound 0.1 µM, first compound 0.1 µM) was 87.4% and the viability, T/C (second compound 0.1 µM, first compound 0.316 µM) was 58.7%. For the same compound, the viability, T/C (second compound 0.1 µM, first compound 1 µM) was 77.3%, the viability, T/C (second compound 0.1 µM, first compound 3.16 µM) was 76.4% and the viability, T/C (second compound 0.1 µM, first compound 10 µM) was 16.3%. The viability, T/C (second compound 0.316 µM, first compound 0.0316 µM) was 86.5%, the viability, T/C (second compound 0.316 µM, first compound 0.1 µM) was 74.1% and the viability, T/C (second compound 0.316 µM, first compound 0.316 µM) was 58%. It also gave a viability, T/C (second compound 0.316 µM, first compound 1 µM) of 65%, a viability, T/C (second compound 0.316 µM, first compound 3.16 µM) of 72.2% and a viability, T/C (second compound 0.316 µM, first compound 10 µM) of 13.7%. It also gave a viability, T/C (second compound 1 µM, first compound 0.0316 µM) of 62.6%, a viability, T/C (second compound 1 µM, first compound 0.1 µM) of 66.1% and a viability, T/C (second compound 1 µM, first compound 0.316 µM) of 46.6%. For the same compound, the viability, T/C (second compound 1 µM, first compound 1 µM) was 52.7%, the viability, T/C (second compound 1 µM, first compound 3.16 µM) was 66.3% and the viability, T/C (second compound 1 µM, first compound 10 µM) was 10.9%. It also gave a viability, T/C (second compound 3.16 µM, first compound 0.0316 µM) of 48.3%, a viability, T/C (second compound 3.16 µM, first compound 0.1 µM) of 40.2% and a viability, T/C (second compound 3.16 µM, first compound 0.316 µM) of 34.7%. The viability, T/C (second compound 3.16 µM, first compound 1 µM) was 40%, the viability, T/C (second compound 3.16 µM, first compound 3.16 µM) was 42% and the viability, T/C (second compound 3.16 µM, first compound 10 µM) was 7.05%. The viability, T/C (second compound 10 µM, first compound 0.0316 µM) was 32.6%, the viability, T/C (second compound 10 µM, first compound 0.1 µM) was 28.3% and the viability, T/C (second compound 10 µM, first compound 0.316 µM) was 24.9%. For the same compound, the viability, T/C (second compound 10 µM, first compound 1 µM) was 27.6%, the viability, T/C (second compound 10 µM, first compound 3.16 µM) was 29.6% and the viability, T/C (second compound 10 µM, first compound 10 µM) was 2.78%.
